# Laboratory results published in ChEMBL document CHEMBL5104094, “Chemistry, biosynthesis and biological activity of terpenoids and meroterpenoids in bacteria and fungi isolated from different marine habitats” (Eur J Med Chem, 2021).
# Test system: HL-60
# Test: Inhibition of cell adhesion of human HL-60 cells to human LPS-stimulated HUVEC cells incubated for 4 hrs with HUVEC cells followed by MTT-labeled HL-60 cells addition measured after 40 mins by absorbance based microplate reader analysis
# Format: functional
# Conditions: not given
row,SMILES,IC50
1,C=C(CO)[C@@]1(O)[C@@H](O)[C@@]2(C)[C@H](CCC[C@@H]2C)C[C@@H]1O,15600 nM
2,C=C1COC(OC)[C@@]12C[C@H]1C[C@H](O)C[C@H](C)[C@@]1(C)C2 (some centres not stated),11500 nM
3,C=C(CO)[C@]1(O)[C@@H](O)[C@@]2(C)[C@H](CCC[C@@H]2C)C[C@@H]1O,20700 nM

# Biological target: Tyrosine-protein phosphatase non-receptor type 6 (Homo sapiens, UniProt P29350)
# Sequence (P29350 whole entry): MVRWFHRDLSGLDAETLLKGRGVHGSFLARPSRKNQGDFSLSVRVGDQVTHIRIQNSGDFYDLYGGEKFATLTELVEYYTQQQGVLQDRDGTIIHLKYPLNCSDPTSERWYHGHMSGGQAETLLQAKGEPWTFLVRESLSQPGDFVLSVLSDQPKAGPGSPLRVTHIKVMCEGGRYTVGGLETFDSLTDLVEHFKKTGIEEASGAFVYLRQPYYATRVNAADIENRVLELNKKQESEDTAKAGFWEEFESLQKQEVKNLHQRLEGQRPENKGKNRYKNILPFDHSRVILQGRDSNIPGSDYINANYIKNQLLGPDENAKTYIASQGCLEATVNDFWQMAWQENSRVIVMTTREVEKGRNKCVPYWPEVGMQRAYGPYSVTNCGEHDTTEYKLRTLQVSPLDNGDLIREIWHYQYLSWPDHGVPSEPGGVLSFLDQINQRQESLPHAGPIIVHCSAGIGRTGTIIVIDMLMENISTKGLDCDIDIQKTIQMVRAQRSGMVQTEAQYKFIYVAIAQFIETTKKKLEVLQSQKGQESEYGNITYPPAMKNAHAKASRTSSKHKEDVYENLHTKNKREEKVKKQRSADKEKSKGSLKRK
# Test: Inhibition of recombinant human SHP1 expressed in Escherichia coli using pnitrophenyl phosphate as substrate preincubated for 15 mins followed by substrate addition measured after 60 mins by absorbance based assay
# Conditions: not given
row,SMILES,IC50
1,COC(=O)[C@]12[C@](C)(C(=O)[C@@]1(C)O)C(C)=C[C@H]1[C@]34CC[C@H](OC(C)=O)C(C)(C)[C@H]3[C@H](C[C@@]12C)OC4=O,23000 nM
2,COC(=O)[C@@]12C(=O)[C@@](C)(O)[C@]1(C)C(C)=C[C@H]1[C@]34CC[C@H](OC(C)=O)C(C)(C)[C@H]3[C@H](C[C@@]12C)OC4=O,34000 nM
3,COC(=O)[C@@]12C(=O)[C@](C)(O)C(=O)[C@@H](C(C)=C1C)C1[C@]2(C)C[C@@H]2OC(=O)[C@]13CC[C@H](OC(C)=O)C(C)(C)[C@@H]23 (some centres not stated),22000 nM

# Test system: RAW264.7
# Test: Antiinflammatory activity in LPS-stimulated mouse RAW264.7 cells assessed as inhibition of NO production incubated for 2 hrs followed by LPS stimulation measured after 48 hrs […]
# Format: functional, cell-based
# Conditions: not given
row,SMILES,IC50
1,C=C1[C@@H](OC(C)=O)[C@@H]2[C@](C)(C(=O)C(O)=C3C(C)(C)C(=O)CC[C@]32C)[C@]2(C(=O)OC)C(=O)[C@@H](C)OC(=O)[C@]12C,13400 nM
2,C=C1[C@@H](OC(C)=O)[C@@H]2[C@](C)(C(=O)C(O)=C3C(C)(C)C(=O)C=C[C@]32C)[C@]2(C(=O)OC)C(=O)[C@@H](C)OC(=O)[C@]12C,13400 nM
3,C=C1[C@@H](OC(C)=O)[C@H]2[C@]3(C)[C@H]4CC(=O)C(C)(C)[C@]43C(=O)[C@]3(O)OC4=C(C)OC(=O)[C@@]1(C)[C@]4(C(=O)OC)[C@]23C,13400 nM
4,COc1ccc2c(c1)c(CC(=O)O)c(C)n2C(=O)c1ccc(Cl)cc1 [INDOMETHACIN],24000 nM

# Test system: HCT-116
# Test: Cytotoxicity against human HCT-116 cells assessed as cell growth inhibition incubated for 72 hrs by CellTiter 96 Aqueous One Solution Cell Proliferation assay
# Format: functional, cell-based
# Conditions: HCT-116, 72 h
row,SMILES,IC50
1,C=C1CC[C@H](Cl)C(C)(C)[C@@H]1C[C@@]12OC(C)(C)[C@H](Cl)C[C@]1(Cl)C(=O)C1=C(C2=O)C(=[N+]=[N-])C(=O)C(C)=C1O,500 nM
2,C=C1CC[C@H](Cl)C(C)(C)[C@@H]1C[C@@]12OC(C)(C)[C@H](Cl)C[C@@]1(Cl)C(=O)c1c(cc(O)c(C)c1O)C2=O,3000 nM

# Biological target: Platelet-activating factor receptor (Homo sapiens, UniProt P25105)
# Sequence (P25105 whole entry): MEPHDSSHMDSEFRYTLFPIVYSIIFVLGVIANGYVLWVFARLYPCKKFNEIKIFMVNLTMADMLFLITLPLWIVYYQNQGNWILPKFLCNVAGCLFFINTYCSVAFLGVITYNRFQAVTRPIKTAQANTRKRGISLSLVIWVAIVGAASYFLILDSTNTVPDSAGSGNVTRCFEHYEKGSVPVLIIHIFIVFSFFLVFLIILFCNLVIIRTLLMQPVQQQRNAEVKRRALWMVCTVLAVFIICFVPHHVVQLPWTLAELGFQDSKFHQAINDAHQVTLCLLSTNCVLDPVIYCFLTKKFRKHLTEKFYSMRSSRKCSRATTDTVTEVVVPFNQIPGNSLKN
# Test: Antagonist activity at PAFR (unknown origin)
# Format: functional
# Conditions: not given
row,SMILES,IC50
1,C/C1=C\CC[C@]2(C)O[C@@H]3C[C@@H](C)[C@@](C)(CC1)C1=C3[C@](O)(OC1)[C@H]2O,2800 nM
2,C[C@@H]1[C@@H](O)C=C2C(=O)[C@H]3O[C@@]3(C)CCC[C@H]3O[C@@]3(C)C[C@]1(C)[C@@]2(C)O,2800 nM
3,C/C1=C\CC[C@@H]2O[C@H]2C(=O)C2=CC[C@@H](C)[C@@](C)(C[C@@H]1O)[C@@H]2C,2800 nM
4,C[C@@H]1CC=C2C(=O)[C@H]3O[C@]3(C)CC[C@@H]3O[C@@]3(C)CC[C@@]1(C)[C@@]2(C)O,2800 nM
5,C=C1C2=CC[C@@H](C)[C@@]1(C)CC/C(C)=C/CC[C@H]1O[C@@H]1C2=O,2500 nM
6,C=C1C2=CC[C@@H](C)[C@]1(C)CC[C@]1(C)O[C@H]1CC[C@@]1(C)O[C@@H]1C2=O,2800 nM
7,C[C@@H]1CC=C2C(=O)[C@H]3O[C@]3(C)CC[C@@H]3O[C@@]3(C)CC[C@@]1(C)[C@@H]2C,2800 nM

# Test system: not listed separately
# Test: Inhibition of Influenza virus neuraminidase
# Parameters: species or system unidentified influenza virus
# Conditions: not given
row,SMILES,IC50
1,C=C1[C@]23C(=O)O[C@@H](C)[C@@]2(O)C(=O)O[C@@]1(C)[C@H](O)C1=C(C)[C@@]2(C=CC(=O)OC2(C)C)CC[C@]13C,1370 nM
2,C=C1[C@]23C(=O)O[C@@H](C)[C@@]2(O)C(=O)O[C@@]1(C)[C@H](OC(C)=O)C1=C(C)[C@@]2(C=CC(=O)OC2(C)C)CC[C@]13C,1370 nM
3,C=C1[C@@]2(CCC(=O)OC2(C)C)C[C@H](OC(=O)/C(C)=C/C)[C@@]2(C)[C@]34C(=C)[C@@]5(C)OC(=O)[C@@]3(O[C@@]12[C@H]5OC(C)=O)[C@H](C)OC4=O,1370 nM
4,C=C1[C@@]2(CCC(=O)OC2(C)C)C[C@H](OC(=O)c2ccccc2)[C@@]2(C)[C@@]34C(=O)O[C@@H](C)[C@@]35O[C@@]12[C@@H](OC(C)=O)[C@](C)(OC5=O)C4=O,1370 nM
5,C=C1C23O[C@@]45C(=O)O[C@](C)(C(=C)[C@@]4(C(=O)O[C@H]5C)[C@]2(C)[C@@H](OC(=O)c2ccccc2)C[C@]12CCC(=O)OC2(C)C)[C@@H]3OC(C)=O,1370 nM

# Biological target: T1, M-phase inducer phosphatase 2 (Homo sapiens, UniProt P30305)
# T1 sequence (P30305 whole entry): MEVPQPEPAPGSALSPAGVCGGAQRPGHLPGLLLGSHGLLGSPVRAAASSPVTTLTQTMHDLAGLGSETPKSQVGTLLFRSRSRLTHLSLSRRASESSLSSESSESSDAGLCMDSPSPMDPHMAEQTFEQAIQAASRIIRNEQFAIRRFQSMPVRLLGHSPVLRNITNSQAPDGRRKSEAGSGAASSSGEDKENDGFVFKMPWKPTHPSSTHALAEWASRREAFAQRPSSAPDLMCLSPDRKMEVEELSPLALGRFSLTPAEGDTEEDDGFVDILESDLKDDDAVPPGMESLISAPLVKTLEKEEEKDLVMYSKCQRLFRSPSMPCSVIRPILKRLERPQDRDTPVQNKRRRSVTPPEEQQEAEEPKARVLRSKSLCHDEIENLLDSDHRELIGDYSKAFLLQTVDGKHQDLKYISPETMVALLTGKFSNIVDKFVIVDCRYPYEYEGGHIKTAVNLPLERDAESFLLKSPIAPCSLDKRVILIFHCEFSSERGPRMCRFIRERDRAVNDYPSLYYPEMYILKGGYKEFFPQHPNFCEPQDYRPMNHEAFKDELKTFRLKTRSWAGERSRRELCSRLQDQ
# Test: Inhibition of recombinant human CDC25B expressed in Escherichia coli using pnitrophenyl phosphate as substrate preincubated for 15 mins followed by substrate addition measured after 60 mins by absorbance based assay
# Conditions: not given
row,SMILES,IC50
1,COC(=O)[C@]12[C@](C)(C(=O)[C@@]1(C)O)C(C)=C[C@H]1[C@]34CC[C@H](OC(C)=O)C(C)(C)[C@H]3[C@H](C[C@@]12C)OC4=O,18000 nM
2,COC(=O)[C@@]12C(=O)[C@@](C)(O)[C@]1(C)C(C)=C[C@H]1[C@]34CC[C@H](OC(C)=O)C(C)(C)[C@H]3[C@H](C[C@@]12C)OC4=O,19000 nM
3,COC(=O)[C@@]12C(=O)[C@](C)(O)C(=O)[C@@H](C(C)=C1C)C1[C@]2(C)C[C@@H]2OC(=O)[C@]13CC[C@H](OC(C)=O)C(C)(C)[C@@H]23 (some centres not stated),20000 nM
